Data published in US10829520B2, “Beta-hairpin peptidomimetics” (POLYPHOR AG, priority 2015, dated 2020).
Where a SMILES comes first, the peptide text is derived from it. Bridges are numbered along the chain shown (N, C = ends). Roman numbers before positions name the chains, in order. [ ]: non-standard residue; d: D form. The star is where a group is joined. NαAmidinoTrp = N=C(N)N[C@@H](Cc1c[nH]c2ccccc12)C(=O)*; Pen = CC(C)(S)[C@H](N)C(=O)O; Tle = CC(C)(C)[C@H](N)C(=O)O; NMeC = CN[C@@H](CS)C(=O)O; dDab = NCC[C@@H](N)C(=O)O; Nle = CCCC[C@H](N)C(=O)O; Orn = NCCC[C@H](N)C(=O)O; Dab = NCC[C@H](N)C(=O)O; Dap = NC[C@H](N)C(=O)O; Sar = CNCC(=O)O

Assays:
Type in all cases: cell-based
[1] = system: human red blood cells (hRBC); assay: Hemolysis of human red blood cells; conditions: red cells of human, 1 h
Procedure, shortened: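 Percent lysis of washed human erythrocytes after 1 h at 37° C. with 100 μg/mL peptide, calculated from OD540 of 8-fold diluted supernatant as a fraction of the 2.5% Triton X-100 value.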

Escherichia coli 926415 = conditions: 926415
[2] = system: Escherichia coli ATCC 25922; conditions: ATCC 25922
Procedure, shortened: (§1)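 Peptide MICs were determined by CLSI broth microdilution in cation-adjusted Mueller-Hinton II broth with 0.002% polysorbate 80, inoculum approx. 10^6 CFU/mL. Two-fold serial dilutions of peptide were tested. MIC was the lowest concentration (μg/mL) with no visible growth after 18-20 hours at 35° C.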

[3] = system: Klebsiella pneumoniae SSI #3010; conditions: SSI #3010
Procedure, shortened: as §1

[4] = system: Pseudomonas aeruginosa ATCC 27853; conditions: ATCC 27853
Procedure, shortened: as §1

[5] = system: Klebsiella pneumoniae 968733; conditions: 968733
[6] = system: Acinetobacter baumannii DSM 30008; conditions: DSM 30008
Procedure, shortened: as §1

[7] = system: Acinetobacter baumannii 872842; conditions: 872842

Compound	Hemolysis at 100 μg/mL [1]; 100	Escherichia coli 926415 MIC (Escherichia coli 926415)	Escherichia coli ATCC 25922 MIC [2]	Klebsiella pneumoniae SSI #3010 MIC [3]	Pseudomonas aeruginosa ATCC 27853 MIC [4]	Klebsiella pneumoniae 968733 MIC [5]	Acinetobacter baumannii DSM 30008 MIC [6]	Acinetobacter baumannii 872842 MIC [7]	Hemolysis at 100 μg/mL ([1]; 100 μg/mL)
CCCC[C@@H]1NC(=O)[C@@H]2CCCN2C(=O)[C@H]2CCCN2C(=O)[C@H](CO)NC(=O)[C@H](C)NC(=O)[C@H](C(C)(C)C)NC(=O)[C@H](CCN)NC(=O)[C@H](Cc2c[nH]c3ccccc23)NC(=O)[C@H](CCN)NC(=O)[C@H](CCC(=O)N[C@@H](CCN)C(=O)N[C@H]2CCNC(=O)[C@H]([C@@H](C)O)NC(=O)[C@H](CCN)NC(=O)[C@H](CCN)NC(=O)[C@H](CC(C)C)NC(=O)[C@@H](Cc3ccccc3)NC(=O)[C@H](CCN)NC2=O)NC(=O)[C@H](CCCN)NC(=O)[C@H](CCN)NC(=O)[C@H](Cc2ccc(O)cc2)NC(=O)[C@H](CO)NC1=O [Ex. 3] (I: cyclo([Nle]SY[Dab][Orn]E[Dab]W[Dab][Tle]AS[dP]P) / II: [Dab][Dab][Dab][dF]L[Dab][Dab]T; amide I:6-II:N; lactam II:2-II:C)	<1%	0.25 µg/mL	0.5 µg/mL	0.5 µg/mL	0.25 µg/mL	1 µg/mL	1 µg/mL	2 µg/mL	
CCCC[C@@H]1NC(=O)[C@@H]2CCCN2C(=O)[C@H]2CCCN2C(=O)[C@H](CO)NC(=O)[C@H](CC(N)=O)NC(=O)[C@H](C(C)(C)C)NC(=O)[C@H](CCN)NC(=O)[C@H](Cc2c[nH]c3ccccc23)NC(=O)[C@@H](NC)CSSC[C@@H](C(=O)N(C)CC(=O)N[C@H](CCN)C(=O)N[C@@H](CCN)C(=O)N[C@H]2CCNC(=O)[C@H]([C@@H](C)O)NC(=O)[C@H](CCN)NC(=O)[C@H](CCN)NC(=O)[C@H](CC(C)C)NC(=O)[C@@H](CC(C)C)NC(=O)[C@H](CCN)NC2=O)NC(=O)[C@H](CCCN)NC(=O)[C@H](CCN)NC(=O)[C@H](Cc2ccc(O)cc2)NC(=O)[C@H](CN)NC1=O [Ex. 214] (H-[NMeC]W[Dab][Tle]NS[dP]P[Nle][Dap]Y[Dab][Orn]C[Sar][dDab][Dab][Dab][Dab][dL]L[Dab][Dab]T; disulfide 1-14; lactam 18-C)		2 µg/mL	0.5 µg/mL	1 µg/mL	0.5 µg/mL	8 µg/mL	2 µg/mL	0.5 µg/mL	1%
CC(=O)N[C@@H](Cc1c[nH]c2ccccc12)C(=O)N[C@@H](CCN)C(=O)N[C@H](C(=O)N[C@H]1CC(=O)NCC[C@@H](C(=O)N[C@@H](Cc2ccc(O)cc2)C(=O)N[C@@H](CCN)C(=O)N[C@H](C(=O)N[C@@H](CCN)C(=O)N[C@@H](CCN)C(=O)N[C@@H](CCN)C(=O)N[C@H]2CCNC(=O)[C@H]([C@@H](C)O)NC(=O)[C@H](CCN)NC(=O)[C@H](CCN)NC(=O)[C@H](CC(C)C)NC(=O)[C@@H](CC(C)C)NC(=O)[C@H](CCN)NC2=O)[C@@H](C)O)NC(=O)[C@H](C(C)C)NC(=O)[C@@H]2CCCN2C(=O)[C@H]2CCCN2C(=O)[C@H](Cc2c[nH]cn2)NC1=O)C(C)(C)C [Ex. 168] (Ac-W[Dab][Tle]DH[dP]PV[Dab]Y[Dab]T[Dab][Dab][Dab][Dab][Dab][dL]L[Dab][Dab]T; lactam 4-9, 16-C)	3%	0.5 µg/mL	0.5 µg/mL	1 µg/mL	0.25 µg/mL	4 µg/mL	2 µg/mL	1 µg/mL	
CCCC[C@@H]1NC(=O)[C@@H]2CCCN2C(=O)[C@H]2CCCN2C(=O)[C@H](CO)NC(=O)[C@H]([C@@H](C)O)NC(=O)[C@H](C(C)(C)C)NC(=O)[C@@H](NC(=O)[C@H](Cc2c[nH]c3ccccc23)NC(C)=O)CSSC[C@@H](C(=O)N[C@@H](CCCN)C(=O)N[C@@H](CCN)C(=O)N[C@H]2CCNC(=O)[C@H]([C@@H](C)O)NC(=O)[C@H](CCN)NC(=O)[C@H](CCN)NC(=O)[C@H](CC(C)C)NC(=O)[C@@H](Cc3ccccc3)NC(=O)[C@H](CCN)NC2=O)NC(=O)[C@H](Cc2ccc(O)cc2)NC(=O)[C@H](CO)NC1=O [Ex. 47] (Ac-WC[Tle]TS[dP]P[Nle]SYC[Orn][Dab][Dab][Dab][dF]L[Dab][Dab]T; disulfide 2-11; lactam 14-C)		0.5 µg/mL	0.25 µg/mL	0.5 µg/mL	0.5 µg/mL	1 µg/mL	0.25 µg/mL	0.5 µg/mL	1%
CNCC(=O)N[C@@H](Cc1c[nH]c2ccccc12)C(=O)N[C@H]1CSSC[C@@H](C(=O)N(C)CC(=O)N[C@H](C(=O)N[C@@H](CCN)C(=O)N[C@@H](CCN)C(=O)N[C@H]2CCNC(=O)[C@H]([C@@H](C)O)NC(=O)[C@H](CCN)NC(=O)[C@H](CCN)NC(=O)[C@H](CC(C)C)NC(=O)[C@@H](CC(C)C)NC(=O)[C@H](CCN)NC2=O)[C@@H](C)O)NC(=O)[C@H](Cc2ccc(O)cc2)NC(=O)[C@H](CO)NC(=O)[C@H](CC(C)C)NC(=O)[C@@H]2CCCN2C(=O)[C@H]2CCCN2C(=O)[C@H](CO)NC(=O)[C@H](C)NC(=O)[C@H](C(C)C)NC1=O [Ex. 184] (H-[Sar]WCVAS[dP]PLSYC[Sar]T[Dab][Dab][Dab][Dab][dL]L[Dab][Dab]T; disulfide 3-12; lactam 17-C)		1 µg/mL	0.5 µg/mL	0.5 µg/mL	0.75 µg/mL	1 µg/mL	0.5 µg/mL	1 µg/mL	<1%
CC[C@H](C)[C@@H]1NC(=O)[C@@H]2CCCN2C(=O)[C@H]2CCCN2C(=O)[C@H](Cc2ccc(O)cc2)NC(=O)[C@@H](NC(=O)[C@@H](NC(=O)[C@H](CCN)NC(=O)[C@H](CC(C)C)NC(C)=O)C(C)C)CSSC[C@@H](C(=O)N[C@@H](Cc2ccc(O)cc2)C(=O)N[C@@H](CCN)C(=O)N[C@@H](CCCN)C(=O)N[C@H](CCN)C(=O)N[C@@H](CCN)C(=O)N[C@H]2CCNC(=O)[C@H]([C@@H](C)O)NC(=O)[C@H](CCN)NC(=O)[C@H](CCN)NC(=O)[C@H](CC(C)C)NC(=O)[C@@H](Cc3ccccc3)NC(=O)[C@H](CCN)NC2=O)NC1=O [Ex. 119] (Ac-L[Dab]VCY[dP]PICY[Dab][Orn][dDab][Dab][Dab][Dab][dF]L[Dab][Dab]T; disulfide 4-9; lactam 15-C)		1 µg/mL	0.25 µg/mL	1 µg/mL	0.25 µg/mL	4 µg/mL	0.5 µg/mL	0.5 µg/mL	0.5%
CC(C)C[C@@H]1NC(=O)[C@@H](CC(C)C)NC(=O)[C@H](CCN)NC(=O)[C@@H](NC(=O)[C@H](CCN)NC(=O)[C@@H](NC(=O)[C@H](CCN)NC(=O)CNC(=O)[C@H]2NC(=O)[C@H](Cc3ccc(O)cc3)NC(=O)[C@H](CO)NC(=O)[C@H](CC(C)C)NC(=O)[C@@H]3CCCN3C(=O)[C@H]3CCCN3C(=O)[C@H](CO)NC(=O)[C@H](C)NC(=O)[C@H](C(C)C)NC(=O)[C@@H](NC(=O)[C@H](Cc3c[nH]c4ccccc34)NC(=N)N)CSSC2(C)C)[C@@H](C)O)CCNC(=O)[C@H]([C@@H](C)O)NC(=O)[C@H](CCN)NC(=O)[C@H](CCN)NC1=O [Ex. 173] (NαAmidinoTrp-CVAS[dP]PLSY[Pen]G[Dab]T[Dab][Dab][Dab][dL]L[Dab][Dab]T; disulfide 1-10; lactam 15-C)		0.5 µg/mL	0.125 µg/mL	0.125 µg/mL	0.5 µg/mL	1 µg/mL	0.125 µg/mL	0.25 µg/mL	1%
CCCC[C@@H]1NC(=O)[C@@H]2CCCN2C(=O)[C@H]2CCCN2C(=O)[C@H](CO)NC(=O)[C@H](C)NC(=O)[C@H](C(C)(C)C)NC(=O)[C@@H](NC(=O)[C@H](Cc2c[nH]c3ccccc23)NC(C)=O)CSSC[C@@H](C(=O)N[C@@H](CCN)C(=O)N[C@H](C(=O)N[C@@H](CCN)C(=O)N[C@H]2CCNC(=O)[C@H]([C@@H](C)O)NC(=O)[C@H](CNC(=O)[C@@H](N)CCC(=O)O)NC(=O)[C@H](CCN)NC(=O)[C@H](CC(C)C)NC(=O)[C@@H](Cc3ccccc3)NC(=O)[C@H](CCN)NC2=O)[C@@H](C)O)NC(=O)[C@H](Cc2ccc(O)cc2)NC(=O)[C@H](CO)NC1=O [Ex. 25] (Ac-WC[Tle]AS[dP]P[Nle]SYC[Dab]T[Dab][Dab][Dab][dF]L[Dab][Dap](Glu)T; disulfide 2-11; lactam 15-C)		3 µg/mL	2 µg/mL	4 µg/mL	4 µg/mL	8 µg/mL	1 µg/mL	1 µg/mL	3%
